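1) Cells in 96-well plates. 2) Compound, 48 h, 5 concentrations. 3) Linear interpolation between surrounding doses. 4) Unreached endpoint = highest concentration. TGI: total growth inhibition.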 Some results are limits rather than exact numbers.

Our source for the TGI values is PubChem BioAssay (NCI).

Assay in all cases: growth of human tumour cells (NCI), 48 h
Assay [1] relates to A498 renal.
The test system of assay [2] is A549 NSCLC.
Assay [3] relates to ACHN renal.
The subject of assay [4] is CCRF-CEM leukemia.
Assay [5] relates to HCC-2998 colon.
The subject of assay [6] is HOP-62 NSCLC.
The test system of assay [7] is IGROV1 ovarian.
Assay [8] relates to K-562 leukemia.
The subject of assay [9] is MALME-3M melanoma.
The subject of assay [10] is MCF7 breast.
For assay [11], the system named is NCI-H226 lung.
Assay [12] has as its system NCI-H460 lung.
Assay [13] concerns SW-620 colon.
Assay [14] has as its system T-47D breast.
For assay [15], the system named is UO-31 renal.
Assay [16] has as its system EKVX NSCLC.
For assay [17], the system named is HT29 colon.
Assay [18] concerns M14 melanoma.
Assay [19] has as its system UACC-62 melanoma.
For assay [20], the system named is MDA-MB-435.

`CO/C(=N\N=C\c1ccc(OC)cc1OC)c1ccncc1`: the TGI in assay [1], in assay [2], in [3], in assay [4], in [5] and in assay [6] was above 10 µM in each case. In addition, the TGI in assay [7], in assay [8], in assay [9], in assay [10], in assay [11] and in assay [12] was above 10 µM each time. Besides, the TGI in assay [13], in assay [14] and in [15] was above 10 µM throughout.
For `COC(=O)/C(C#N)=C1\NC(=O)CC(c2ccccc2)C1C#N` (stereo unspecified), the TGI in assay [2], in assay [3], in [4], in assay [16], in assay [5] and in [6] was above 100 µM throughout. Besides, the TGI in assay [17], in [7], in assay [8], in assay [18], in assay [9] and in [10] was above 100 µM each time. Moreover, the TGI in assay [11], in assay [12], in assay [13], in assay [14], in assay [19] and in [15] was above 100 µM throughout.
In the case of `C=C(C)[C@@H]1CC[C@@H](C)[C@](O)([C@@H]2C[C@@H]([C@H](COC(=O)c3ccccc3)OC(=O)c3ccccc3)OC2=O)C1`, the TGI in assay [1], in [2], in assay [3], in assay [4], in [16] and in [5] was above 100 µM throughout. The TGI in assay [6], in [17], in assay [7], in assay [8], in assay [18] and in assay [9] was above 100 µM each time. Moreover, the TGI in [10], in assay [20], in assay [11], in assay [12], in assay [13] and in assay [19] was above 100 µM throughout. Besides, the TGI in [15] is above 100 µM.
`COC(C/C(=C/CO[Si](C(C)C)(C(C)C)C(C)C)C(=O)Nc1ccccc1I)OC`: the TGI in assay [1] was above 100 µM; in assay [2], above 100 µM; in assay [3], above 100 µM; in assay [4] it was above 100 µM; in assay [5], 40 µM; in assay [6], above 100 µM. In addition, the TGI in [17] is above 100 µM; in assay [7], 28.7 µM; in assay [8], above 100 µM; in [18] it was above 100 µM; in assay [9], 31.8 µM; in assay [20], above 100 µM. The TGI in assay [11] is 98.5 µM; in assay [12], above 100 µM; in assay [13] it was above 100 µM; in assay [14], above 100 µM; in assay [19], above 100 µM; in assay [15], above 100 µM.
In the case of `Cn1cnc2c(OCC3CCCCC3)nc(N)nc21`, the TGI in assay [2], in assay [3], in assay [4], in assay [16], in assay [5] and in [6] was above 100 µM each time. The TGI in assay [17], in assay [7], in assay [8], in assay [18], in assay [9] and in [10] was above 100 µM throughout. In addition, the TGI in assay [20], in assay [11], in [12], in assay [13], in assay [19] and in [15] was above 100 µM throughout.
`C/C(=N\NS(=O)(=O)c1ccc(C)cc1)C(CN(C)C)C(c1ccccc1)c1c(O)c2ccccc2oc1=O` (stereo unspecified): the TGI in assay [1], in assay [2], in assay [3], in assay [4], in assay [16] and in assay [5] was above 100 µM each time. Also, the TGI in assay [6], in [17], in assay [7], in assay [8], in [18] and in [9] was above 100 µM in each case. The TGI in [10], in [20], in assay [11], in [12], in assay [13] and in [19] was above 100 µM each time. The TGI in assay [15] is above 100 µM.
`C/C(=N\NC(=O)/C(C#N)=C\c1ccc(N(CCC#N)CCC#N)cc1)c1ccccc1`: the TGI in assay [2], in assay [3], in [16], in assay [5], in assay [6] and in assay [17] was above 10 µM throughout. Further, the TGI in assay [7], in assay [18], in assay [9], in assay [10], in assay [20] and in [11] was above 10 µM throughout. Further, the TGI in assay [12], in [13], in assay [14], in assay [19] and in assay [15] was above 10 µM in each case.
On to `O=c1cc(NCC2CCCCC2)[nH]c(=O)[nH]1`, for which the TGI in [1], in [2], in [3], in assay [4], in [16] and in assay [5] was above 100 µM each time. The TGI in assay [6], in assay [7], in assay [8], in [18], in [9] and in assay [10] was above 100 µM each time. The TGI in [20], in assay [11], in assay [12], in assay [13] and in assay [15] was above 100 µM in each case.
